Assays:
[1] = Maximum percentage effect of standard Opioid receptor delta 1 (Cl-DPDPE)
[2] = Maximum % effect of standard (DAMGO) was reported against Opioid receptor mu 1

Structure (SMILES)	EC50 [1] [nM]	EC50 [2] [nM]
CN1CC[C@]23c4c5ccc(O)c4O[C@H]2c2c(c(-c4ccccc4)cn2Cc2ccccc2)C[C@@]3(O)C1C5 [7-benzyl-18-methyl-5-phenyl-10-oxa-7,18-diazahexacyclo[9.9.1.01,9.02,17.04,8.015,21]henicosa-4(8),5,11,13,15(21)-pentaene-2,12-diol]	41	–
Cc1ccc(-c2cn(Cc3ccccc3)c3c2C[C@@]2(O)C4Cc5ccc(O)c6c5[C@@]2(CCN4CC2CC2)[C@H]3O6)cc1 [7-benzyl-18-cyclopropylmethyl-5-(4-methylphenyl)-10-oxa-7,18-diazahexacyclo[9.9.1.01,9.02,17.04,8.015,21]henicosa-4(8),5,11,13,15(21)-pentaene-2,12-diol]	–	34

— BindingDB's records for doi:10.1021/jm010841w (University of Bristol, 2002)
